Source: patent publication US9408387B2, “Safening 6-amino-2-(substituted phenyl)-5-substituted-4-pyrimidinecarboxylate herbicide injury on cereal crops” (Dow AgroSciences LLC, priority 2009, dated 2016)

Columns and labels:
Assay type in all cases: in vivo
[1] = test system: purple deadnettle (Lamium purpureum L; LAMPU); assay: Postemergence herbicidal activity, greenhouse, visual injury: purple deadnettle; conditions: Lamium purpureum, post-emergence, 480 h, 20-22 d, read-out: LAMPU Ob (visual injury); for pest or weed control at 35 g/ha: herbicide alone 35 g ae/ha; for pest or weed control at 70 g/ha: herbicide alone 70 g/ha; for pest or weed control at 140 g/ha: herbicide alone 140 g/ha
Method: (§1) Evaluation of Postemergence Herbicidal Safening in Cereal Crops
(§2) Seeds of the desired test plant species were planted in Sun Gro MetroMix® 306 planting mixture, which typically has a pH of 6.0 to 6.8 and an organic matter content of about 30 percent, in plastic pots with a surface area of 103.2 square centimeters (cm^2). When required to ensure good germination and healthy plants, a fungicide treatment and/or other chemical or physical treatment was applied. The plants were grown for 7-36 days (d) in a greenhouse with an approximate 14-hour (h) photoperiod which was maintained at about 18° C. during the day and 17° C. during the night. Nutrients and water were added on a regular basis and supplemental lighting was provided with overhead metal halide 1000-Watt lamps as necessary. The plants were employed for testing when they reached the second or third true leaf stage.
(§3) Treatments consisted of the acids or esters of compounds 1-10 and cloquintocet-mexyl (CQC-M), fenchlorazole-ethyl, mefenpyr-diethyl alone and in combination. Weighed amounts of acid or methyl esters of the compounds of formula (I) were dissolved in a volume of 97:3 v/v acetone/dimethylsulfoxide (DMSO) to obtain concentrated solutions. […] The concentrated solutions of the test compound were diluted with the addition of an aqueous mixture containing acetone, water, isopropyl alcohol, DMSO, Agri-Dex crop oil concentrate, and Triton® X-77 surfactant in a 64.7:26.0:6.7:2.0:0.7:0.01 v/v ratio. Test compounds were diluted to the appropriate application rate with a dilution solution which was prepared by mixing the appropriate volume of 97:3 v/v acetone/DMSO and the appropriate volume of an aqueous mixture containing acetone, water, isopropyl alcohol, DMSO, Agri-Dex crop oil concentrate, and Triton® X-77 surfactant in a 64.7:26.0:6.7:2.0:0.7:0.01 v/v ratio. Compound requirements are based upon a 12 mL application volume at a rate of 187 liters per hectare (L/ha). The concentrated solutions of the safener were prepared following the same procedure. Weighed amounts of safener were dissolved in a volume of 97:3 v/v acetone/DMSO to obtain concentrated safener solutions.
(§4) Spray solutions of the herbicide safener and test compound mixtures were prepared by adding the concentrated solutions to the appropriate amount of dilution solution to form 12 mL spray solution with active ingredients in combinations.
(§5) Formulated compounds were applied to the plant material with an overhead Mandel track sprayer equipped with 8002E nozzles calibrated to deliver 187 L/ha over an application area of 0.503 square meters (m^2) at a spray height of 18 inches (43 centimeters (cm)) above average plant canopy. Control plants were sprayed in the same manner with the solvent blank.
(§6) The treated plants and control plants were placed in a greenhouse as described above and watered by sub-irrigation to prevent wash-off of the test compounds. After 20-22 d, the condition of the test plants as compared with that of the control plants was determined visually and scored on a scale of 0 to 100 percent where 0 corresponds to no injury and 100 corresponds to complete kill.
(§7) Colby's equation was used to determine the herbicidal effects expected from the mixtures (Colby, S. R. Calculation of the synergistic and antagonistic response of herbicide combinations. Weeds 1967, 15, 20-22.).
(§8) The following equation was used to calculate the expected activity of mixtures containing two active ingredients, A and B: Expected=A+B−(A×B/100)
(§9) A=observed efficacy of active ingredient A at the same concentration as used in the mixture.
(§10) B=observed efficacy of active ingredient B at the same concentration as used in the mixture.

[2] = test system: spring barley (Hordeum vulgare L; HORVS); assay: Postemergence herbicidal safening in cereal crops, greenhouse, visual injury: spring barley; conditions: Hordeum vulgare, post-emergence, 480 h, 20-22 d, read-out: HORVS Ob (visual injury); for pest or weed control at 35 g/ha: herbicide alone 35 g ae/ha; for pest or weed control at 70 g/ha: herbicide alone 70 g/ha; for pest or weed control at 140 g/ha: herbicide alone 140 g/ha; for pest or weed control at 8.75 g/ha: herbicide alone 8.75 g/ha
Method: as §1, §2, §3, §4, §5, §6, §7, §8, §9, §10

[3] = test system: spring wheat (Triticum aestivum L; TRZAS); assay: Postemergence herbicidal safening in cereal crops, greenhouse, visual injury: spring wheat; conditions: Triticum aestivum, post-emergence, 480 h, 20-22 d, read-out: TRZAS Ob (visual injury); for pest or weed control at 35 g/ha: herbicide alone 35 g ae/ha; for pest or weed control at 70 g/ha: herbicide alone 70 g/ha; for pest or weed control at 140 g/ha: herbicide alone 140 g/ha; for pest or weed control at 8.75 g/ha: herbicide alone 8.75 g/ha
Method: as §1, §2, §3, §4, §5, §6, §7, §8, §9, §10

[4] = test system: corn poppy (Papaver rhoeas L; PAPRH); assay: Postemergence herbicidal activity, greenhouse, visual injury: corn poppy; conditions: 20-22 d
Method: as §1, §2, §3, §4, §5, §6, §7, §8, §9, §10

[5] = test system: kochia (Kochia scoparia L; KCHSC); assay: Postemergence herbicidal activity, greenhouse, visual injury: kochia; conditions: 20-22 d
Method: as §1, §2, §3, §4, §5, §6, §7, §8, §9, §10

[6] = test system: durum wheat (Triticum durum L; TRZDU); assay: Postemergence herbicidal safening in cereal crops, greenhouse, visual injury: durum wheat; conditions: herbicide alone 8.75 g/ha; 20-22 d
Method: as §1, §2, §3, §4, §5, §6, §7, §8, §9, §10

[7] = test system: winter wheat (Triticum aestivum L; TRZAW); assay: Postemergence herbicidal safening in cereal crops, greenhouse, visual injury: winter wheat; conditions: herbicide alone 8.75 g/ha; 20-22 d
Method: as §1, §2, §3, §4, §5, §6, §7, §8, §9, §10

[8] = test system: winter barley (Hordeum vulgare L; HORVW); assay: Postemergence herbicidal safening in cereal crops, greenhouse, visual injury: winter barley; conditions: herbicide alone 8.75 g/ha; 20-22 d
Method: as §1, §2, §3, §4, §5, §6, §7, §8, §9, §10

[9] = test system: CIRAR; assay: Postemergence herbicidal activity, greenhouse, visual injury: CIRAR; conditions: 20-22 d
Method: as §1, §2, §3, §4, §5, §6, §7, §8, §9, §10

[10] = test system: MATCH; assay: Postemergence herbicidal activity, greenhouse, visual injury: MATCH; conditions: 20-22 d
Method: as §1, §2, §3, §4, §5, §6, §7, §8, §9, §10

[11] = test system: SASKR; assay: Postemergence herbicidal activity, greenhouse, visual injury: SASKR; conditions: 20-22 d
Method: as §1, §2, §3, §4, §5, §6, §7, §8, §9, §10

[12] = test system: bird's-eye speedwell (Veronica persica L; VERPE); assay: Postemergence herbicidal activity, greenhouse, visual injury: bird's-eye speedwell; conditions: herbicide alone 8.75 g/ha; 20-22 d
Method: as §1, §2, §3, §4, §5, §6, §7, §8, §9, §10

## COc1c(N)nc(-c2ccc(Cl)c(OC)c2F)nc1C(=O)O [Compound 8, 6-amino-2-(4-chloro-2-fluoro-3-methoxyphenyl)-5-methoxypyrimidine-4-carboxylic acid]
[1]
  pest or weed control at 35 g/ha: 100%
  pest or weed control at 70 g/ha: 100%
  pest or weed control at 140 g/ha: 100%
[2]
  pest or weed control at 35 g/ha: 75%
  pest or weed control at 70 g/ha: 50%
  pest or weed control at 140 g/ha: 85%
[3]
  pest or weed control at 35 g/ha: 83%
  pest or weed control at 70 g/ha: 90%
  pest or weed control at 140 g/ha: 95%
[4]; herbicide alone 70 g/ha
  PAPRH Ob (visual injury): 100%
[4]; herbicide alone 140 g/ha
  PAPRH Ob (visual injury): 100%
[5]; herbicide alone 70 g/ha
  KCHSC Ob (visual injury): 90%
[5]; herbicide alone 140 g/ha
  KCHSC Ob (visual injury): 100%

## COC(=O)c1nc(-c2ccc(Cl)c(OC)c2F)nc(N)c1OC [Compound 4, 6-amino-2-(4-chloro-2-fluoro-3-methoxyphenyl)-5-methoxypyrimidine-4-carboxylic acid methyl ester]
[1]
  pest or weed control at 35 g/ha: 100%
[2]
  pest or weed control at 8.75 g/ha: 25%
  pest or weed control at 35 g/ha: 75%
[6]
  TRZDU Ob (visual injury): 18%
[3]
  pest or weed control at 8.75 g/ha: 33%
  pest or weed control at 35 g/ha: 80%
[7]
  TRZAW Ob (visual injury): 22%
[8]
  HORVW Ob (visual injury): 7%

## C=Cc1c(N)nc(-c2ccc(Cl)c(OC)c2F)nc1C(=O)OC [Compound 5, 6-amino-2-(4-chloro-2-fluoro-3-methoxyphenyl)-5-vinylpyrimidine-4-carboxylic acid methyl ester]
[1]
  pest or weed control at 35 g/ha: 75%
  pest or weed control at 70 g/ha: 95%
  pest or weed control at 140 g/ha: 95%
[2]
  pest or weed control at 35 g/ha: 10%
  pest or weed control at 70 g/ha: 8%
  pest or weed control at 140 g/ha: 0%
[3]
  pest or weed control at 35 g/ha: 25%
  pest or weed control at 70 g/ha: 18%
  pest or weed control at 140 g/ha: 40%
[4]; herbicide alone 70 g/ha
  PAPRH Ob (visual injury): 89%
[4]; herbicide alone 140 g/ha
  PAPRH Ob (visual injury): 90%
[9]; herbicide alone 70 g/ha
  CIRAR Ob (visual injury): 84%
[9]; herbicide alone 140 g/ha
  CIRAR Ob (visual injury): 85%

## COc1c(N)nc(-c2ccc(Cl)c(F)c2)nc1C(=O)O [Compound 9, 6-amino-2-(4-chloro-3-fluorophenyl)-5-methoxypyrimidine-4-carboxylic acid]
[1]
  pest or weed control at 70 g/ha: 95%
  pest or weed control at 140 g/ha: 100%
[2]
  pest or weed control at 70 g/ha: 50%
  pest or weed control at 140 g/ha: 70%
[3]
  pest or weed control at 70 g/ha: 60%
  pest or weed control at 140 g/ha: 70%
[10]; herbicide alone 70 g/ha
  MATCH Ob (visual injury): 93%
[10]; herbicide alone 140 g/ha
  MATCH Ob (visual injury): 97%
[5]; herbicide alone 70 g/ha
  KCHSC Ob (visual injury): 100%
[5]; herbicide alone 140 g/ha
  KCHSC Ob (visual injury): 100%

## C=Cc1c(N)nc(-c2ccc(Cl)c(N(C)C)c2F)nc1C(=O)O [Compound 7, 6-amino-2-(4-chloro-3-dimethylamino-2-fluorophenyl)-5-vinylpyrimidine-4-carboxylic acid]
[1]
  pest or weed control at 35 g/ha: 52%
[2]
  pest or weed control at 35 g/ha: 70%
  pest or weed control at 70 g/ha: 30%
  pest or weed control at 140 g/ha: 45%
[3]
  pest or weed control at 35 g/ha: 75%
  pest or weed control at 70 g/ha: 60%
  pest or weed control at 140 g/ha: 70%
[11]; herbicide alone 70 g/ha
  SASKR Ob (visual injury): 75%
[11]; herbicide alone 140 g/ha
  SASKR Ob (visual injury): 80%
[5]; herbicide alone 70 g/ha
  KCHSC Ob (visual injury): 65%
[5]; herbicide alone 140 g/ha
  KCHSC Ob (visual injury): 75%
[9]; herbicide alone 70 g/ha
  CIRAR Ob (visual injury): 80%
[9]; herbicide alone 140 g/ha
  CIRAR Ob (visual injury): 85%

## C=Cc1c(N)nc(-c2ccc(Cl)c(OC)c2F)nc1C(=O)O [Compound 2, 6-amino-2-(4-chloro-2-fluoro-3-methoxyphenyl)-5-vinylpyrimidine-4-carboxylic acid]
[12]
  VERPE Ob (visual injury): 70%
[1]
  pest or weed control at 35 g/ha: 77%
[2]
  pest or weed control at 8.75 g/ha: 24%
  pest or weed control at 35 g/ha: 68%
[6]
  TRZDU Ob (visual injury): 30%
[3]
  pest or weed control at 8.75 g/ha: 41%
  pest or weed control at 35 g/ha: 80%
[4]; herbicide alone 8.75 g/ha
  PAPRH Ob (visual injury): 80%
[7]
  TRZAW Ob (visual injury): 43%
[5]; herbicide alone 8.75 g/ha
  KCHSC Ob (visual injury): 40%
[8]
  HORVW Ob (visual injury): 18%
